Measured values: patent publication US20250302933A1, “ATTENUATED YET IMMUNOGENICALLY POTENTIATED TUMOR EXTRACELLULAR VESICLE COMPOSITIONS AND USES THEREOF” (KOREA INSTITUTE OF SCIENCE AND TECHNOLOGY, priority 2024, published 2025)

How the values were obtained:
4T1 cells = assay: Cell viability assay (CCK-8) with verteporfin; type: cell-based, mouse; conditions: 24 hours
Description: (§1) Cells were seeded in a 96-well plate (30096; SPL Life Sciences, Pochon, South Korea) (5,000 cells/well) and treated with various doses of verteporfin in a serum-free medium for 24 hours. Cell viability was measured using Cell counting kit-8 (CCK-8) assay (CK04; Dojindo, Kumamoto, Japan), and the absorbance was measured at 450 nm using a microplate reader (SpectraMAX 340; Molecular Devices, San Jose, CA, USA).
(§2) To determine appropriate conditions for AI-TEV production, three types of cancer cells were treated with various doses of verteporfin in a serum-free medium and cell viability was assessed. E.G7-OVA cells were a derivative of EL4 mouse lymphoma cells carrying a complete copy of chicken ovalbumin (OVA) mRNA. Mouse oral cancer 2 (MOC2) cells represented an aggressive form of mouse oral squamous cell carcinoma, while 4T1 cells were triple-negative, highly invasive malignant mouse breast cancer cells. The lowest dose of verteporfin that induced effective cell death was 20 ng/ml for E.G7-OVA cells and 200 ng/ml for MOC2 and 4T1 cells and cell viability was approximately 80% for all cell types (FIGS. 2 and 3). The immunogenicity of the cell death was verified based on an increase in DAMPs after verteporfin treatment. […] Tumor cells were cultured in a serum-free medium for 24 hours with or without verteporfin to prepare AI-TEV or control TEV (C-TEV), respectively. […] TEVs expressed several EV markers such as tumor susceptibility genes 101 (TSG101), CD81, and Alix, but had no negative marker calnexin (FIGS. 12 and 13). Since verteporfin inhibited both autophagy and YAP, it was expected that there was a significant difference in a proteomic cargo between C-TEV and AI-TEV.

E.G7-OVA cells = assay: Cell viability assay (CCK-8) with verteporfin; type: cell-based, mouse; conditions: 24 hours
Description: as §1, §2

MOC2 cells = assay: Cell viability assay (CCK-8) with verteporfin; type: cell-based, mouse; conditions: 24 hours
Description: as §1, §2

cancer cells = assay: Immunogenic cell death markers: calreticulin flow cytometry, HSP70/HMGB1 release Western blotting; type: cell-based, mouse
Description: (§3) Protein concentrations of the samples were quantified using a DCTM protein assay kit (5000111, Bio-Rad, Hercules, CA, USA). The samples were dissolved using radioimmunoprecipitation buffer (9806S; Cell Signaling Technology, Danvers, MA, USA) and subjected to SDS-PAGE. The samples were loaded onto a sodium dodecyl sulfate polyacrylamide gel, separated by gel electrophoresis, and transferred to a nitrocellulose membrane. The membrane was blocked with 5% skim milk and incubated overnight at 4° C. with primary antibodies against the following: Tsg101 (sc-22774; Santa Cruz, Dallas, TX, USA), YAP (sc99010), CD81 (sc-166029), ALIX (sc-53540), calnexin (ab22595; Abcam, Cambridge, United Kingdom), OVA (0220-1682; Bio-Rad), HMGB1 (ab18256; Abcam), HSP70 (ab181606; Abcam), or B-actin (4967S; Cell Signaling Technology). After washing five times (5 min each) with Tris-buffered saline containing 0.05% Tween-20 (TBS/T), the membrane was incubated with anti-mouse peroxidase (1:3000; A4416; Sigma-Aldrich) or anti-rabbit peroxidase (1:3000; A0545) secondary antibody at 20 to 25° C. for 1 hour. The membrane was then incubated with an ECL substrate (1705061, Bio-Rad) and visualized using a ChemiDoc™ Touch Imaging System (Bio-Rad).
Cells were seeded in a 6-well plate (30006; SPL Life Sciences, 5×10^5 cells/well) and treated with verteporfin in a serum-free medium for 3 hours. The cells were fixed with 0.25% paraformaldehyde for 5 minutes at 4° C. and then blocked with 3% bovine serum albumin for 15 minutes at 4° C. A calreticulin antibody (ab2907; Abcam) was added to the samples and incubated at 4° C. for 45 minutes. […] Calreticulin expression on the cell membrane was evaluated using flow cytometry gating of PI-negative cells.
To determine appropriate conditions for AI-TEV production, three types of cancer cells were treated with various doses of verteporfin in a serum-free medium and cell viability was assessed. […]

YAP = molecular target: T1, YAP (Mus musculus, UniProt P46938); assay: Western blotting of YAP after verteporfin treatment; type: cell-based; conditions: verteporfin 24 hours
T1 construct: endogenous in cells; host or cells: E.G7-OVA, MOC2 and 4T1 mouse cancer cells
Description: as §3
In addition, the migration ability of TEV-stimulated tumor cells was evaluated using a transwell migration assay. […] E.G7-OVA cells were also evaluated using the same protocol, but due to non-adherent characteristics, invasive cells were counted in the lower wells of a transwell chamber rather than on a membrane (FIGS. 18 and 19). […] Due to the aggressive and metastatic characteristics of 4T1 cells, a matrigel coating was added to the transwell membrane for the invasion assay. […] Finally, to confirm the attenuation of the tumor-promoting properties of AI-TEV in vivo, the efficacy as a therapeutic vaccine was evaluated in a mouse model. The therapeutic vaccine was another well-studied form of tumor vaccine designed to suppress tumor growth and induce long-term antitumor memory.

[1] = conditioned medium, 24 hours after verteporfin treatment

T1 sequence (P46938 whole entry): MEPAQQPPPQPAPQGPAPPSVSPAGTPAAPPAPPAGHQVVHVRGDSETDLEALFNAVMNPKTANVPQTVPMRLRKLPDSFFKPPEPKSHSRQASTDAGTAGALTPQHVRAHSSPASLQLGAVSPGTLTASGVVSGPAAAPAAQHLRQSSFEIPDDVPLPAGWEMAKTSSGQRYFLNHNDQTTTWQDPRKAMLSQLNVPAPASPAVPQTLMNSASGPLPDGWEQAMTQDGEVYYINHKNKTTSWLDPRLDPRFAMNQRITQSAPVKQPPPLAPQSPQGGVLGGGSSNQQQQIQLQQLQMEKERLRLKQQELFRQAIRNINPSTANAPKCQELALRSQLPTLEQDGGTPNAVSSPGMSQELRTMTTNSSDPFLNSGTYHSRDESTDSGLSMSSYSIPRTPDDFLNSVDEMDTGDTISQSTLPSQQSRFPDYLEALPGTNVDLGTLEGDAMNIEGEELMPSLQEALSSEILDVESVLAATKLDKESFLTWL

YAP protein (YAP; 4T1 cells): YAP inhibition | YAP protein content (YAP; E.G7-OVA cells): decreased | YAP protein content (YAP; MOC2 cells): decreased
Substance: Verteporfin
cell viability (4T1 cells; 200 ng/ml verteporfin): approximately 80% | lowest dose of verteporfin that induced effective cell death (4T1 cells; serum-free medium): 200 ng/mL | cell viability (E.G7-OVA cells; 20 ng/ml verteporfin): approximately 80% | lowest dose of verteporfin that induced effective cell death (E.G7-OVA cells; serum-free medium): 20 ng/mL | cell viability (MOC2 cells; 200 ng/ml verteporfin): approximately 80% | lowest dose of verteporfin that induced effective cell death (MOC2 cells; serum-free medium): 200 ng/mL | calreticulin expression (cancer cells; cancer cells after verteporfin treatment, cell surface): dose-dependent increase | release of heat shock protein 70 (HSP70) (cancer cells; [1]): dose-dependent increase | release of high mobility group box 1 (HMGB1) (cancer cells; [1]): dose-dependent increase
